Patent publication US5635401A, “Method to detect hormone treatment in animals” (Cornell Research Foundation, Inc., priority 1995, dated 1997)

Legend:
[1] = test system: protein kinase activity of the resident proteins present in the MFGM; assay: Auto-phosphorylation of MFGM proteins with γ 32P-ATP, detected by SDS-PAGE and autoradiography; assay type: biochemical, bovine; details: for effect on the phosphorylation pattern: valinomycin with or without KCl, ionophore A23187 + CaCl2
Protocol: MFGM and skim milk membranes (SMM) were incubated with γ ^32 P-ATP in the presence of protein phosphatase inhibitors (vanadate, 8-glycerophosphate, phosphotyrosine, phosphoserine, phosphothreonine, p-nitrophenyl phosphate) and 5 mM MgCl, and/or 3 mM MnCl, led to phosphorylation of proteins, as detected by SDS-PAGE and autoradiography. In the bovine MFGM, […] main radiolabelled protein bands were detected and ranged from 13-200 kDa (13, 15, 21, 24, 32, 35, 39, 45, 51, 66, 75, 100, 130, 200). In the human MFGM, 8 bands were indentified and ranged between 20-150 kDa five main bands corresponding to 51, 65, 66, 100, and 130, and three weaker bands corresponding to 21, 24 and 27 kDa. Phosphorylation of bovine skim milk membrane (SMM) proteins was observed only after the addition of 0.1% Triton X-100 to membranes. In this case, the three-four main radioactive bands were detected in a zone between 32 and 35 kDa, and one band in the 75 kDa range.
The presence of phosphatase inhibitors in the kinase media was necessary to see maximal levels of protein phosphorylation. The phosphorylation reaction would not take place when Mg^2+ and Mn^2+ were substituted for Ca^2+. Genistein, an inhibitor of protein tyrosine kinase activity caused approximately 50% inhibition of phosphorylation.
It is believed that the observed phosphorylation was a result of Mg^2+ or Mn^2+ --dependent protein kinase activity of the resident proteins present in the MFGM.

[2] = test system: fatty acid binding protein (FABP/MDGI); assay: FABP phosphorylation in MFGM of milk from cows treated with bST (15 kDa band intensity on electrophoresis gel, FIG. 1); assay type: in vivo, cow; details: for phosphorylated 15 kDa protein (FABP) relative to non-bST treated control cow: FIG. 1
Protocol: The test for determining whether an animal has been treated with bST is performed by: 1) isolating the milk fat globule membranes (MFGM); 2) phosphorylating the MFGM; 3) and detecting the levels of phosphorylation of FABP in MFGM.
Milk fat globule membranes (MFGM) are prepared from the cream of fresh bovine milk. Between 100-200 ml fresh bovine milk from cows administered bST are collected. The cream is obtained by centrifugation of milk at 3,000×g for 20 min. It is then suspended in two volumes of 10 mM phosphate buffer, pH 7.4, containing 0.9% NaCl (PBS), and homogenized in a Warring blender for 45 sec. The homogenate is centrifuged at 100,000×g for 90 min. The MFGM pellet is washed once by resuspension in an initial volume of PBS, followed by centrifugation at 100,000×gfor 90 min. No cells (somatic cells) are found in the MFGM, as determined by light microscopy. MFGM may be either used immediately or stored at -80' C. for future use.
FABP/MDGI is involved in the binding and transport of milk fatty acids.
FIG. 1 is a bar graph showing intensity of a band on an electrophoresis gel showing FABP phosphorylation at the 15 kDalton level. The non-bST treated cow was used as a control. A sample from a milk bulk tank containing milk from cows treated with bST has only about a quarter of the phosphorylated 15 kDa protein.

[3] = test system: bovine mammary and human breast cancer cells; details: including bovine mammary and human breast cancer cells; cited from earlier work

Row | Molecule | effect on the phosphorylation pattern [1] | other results
1 | N#CC(C#N)=NNc1cccc(Cl)c1 [CCCP, carbonyl-cyanide-m-chlorophenyl hydrazone] | did not significantly alter | 
2 | C(=NC1CCCCC1)=NC1CCCCC1 [DCCD, dicyclohexylcarbodimide] | did not significantly alter | 
3 | O=c1c(-c2ccc(O)cc2)coc2cc(O)cc(O)c12 [Genistein] |  | inhibition of phosphorylation ([1]; kinase media with phosphatase inhibitors): approximately 50%
4 | CC1OC(OC2CC(O)C3(CO)C4C(O)CC5(C)C(C6=CC(=O)OC6)CCC5(O)C4CCC3(O)C2)C(O)C(O)C1O (stereo not drawn) [Oubain] | did not significantly alter | 
5 | C=C1[C@@H]2CC[C@H]3[C@]4(C)C[C@H](O[C@@H]5O[C@H](CO)[C@@H](OS(=O)(=O)O)[C@H](OS(=O)(=O)O)[C@H]5OC(=O)CC(C)C)C[C@@H](C(=O)O)[C@H]4CC[C@]3(C2)[C@H]1O [atractyloside] | did not significantly alter | 
6 | CNc1ccc2oc(C[C@H]3O[C@@]4(CC[C@H]3C)O[C@H]([C@H](C)C(=O)c3ccc[nH]3)[C@H](C)C[C@H]4C)nc2c1C(=O)O [ionophore A23187] | did not significantly alter | 
7 | CC(C)[C@@H]1NC(=O)[C@H](C)OC(=O)[C@@H](C(C)C)NC(=O)[C@@H](C(C)C)OC(=O)[C@H](C(C)C)NC(=O)[C@H](C)OC(=O)[C@@H](C(C)C)NC(=O)[C@@H](C(C)C)OC(=O)[C@H](C(C)C)NC(=O)[C@H](C)OC(=O)[C@@H](C(C)C)NC(=O)[C@@H](C(C)C)OC1=O [valinomycin] | did not significantly alter | 
8 | bST: recombinant bovine somatotropin, growth hormone approved for use in dairy cows (protein, UniProt P01246 27-217, looked up) Somatotropin: AFPAMSLSGLFANAVLRAQHLHQLAADTFKEFERTYIPEGQRYSIQNTQVAFCFSETIPAPTGKNEAQQKSDLELLRISLLLIQSWLGPLQFLSRVFTNSLVFGTSDRVYEKLKDLEEGILALMRELEDGTPRAGQILKQTYDKFDTNMRSDDALLKNYGLLSCFRKDLHKTETYLRVMKCRRFGEASCAF |  | levels of phosphorylated MDGI/FABP ([2]; MFGM isolated from cows treated with bST vs non treated cows): significantly reduced; FABP autophosphorylation activity ([2]; cows treated with bST vs non treated cows): weaker; phosphorylated 15 kDa protein (FABP) relative to non-bST treated control cow ([2]; individual cows treated with bST): significant decrease; phosphorylated 15 kDa protein (FABP) relative to non-bST treated control cow ([2]; milk bulk tank sample containing milk from cows treated with bST): about a quarter
9 | MDGI/FABP: mammary derived growth inhibitor / fatty acid binding protein, a 15 kDa protein of the milk fat globule membrane (protein, UniProt P10790 2-133, looked up) Fatty acid-binding protein, …: VDAFVGTWKLVDSKNFDDYMKSLGVGFATRQVGNMTKPTTIIEVNGDTVIIKTQSTFKNTEISFKLGVEFDETTADDRKVKSIVTLDGGKLVHVQKWNGQETSLVREMVDGKLILTLTHGTAVCTRTYEKQA |  | growth of various cell types [3]: inhibits the growth
